How the values were obtained:
[1] = tested on: F4/80+CD11b+ macrophages and CD4+ T-cells; test: Flow cytometry of immune cell infiltration into the aortic root; assay type: in vivo, mice; settings: day 84, flow cytometry
Protocol: (§1) FIG. 6 are graphs showing that ABA decreases immune cell infiltration in aortas of ApoE−/− mice and reduces pro-inflammatory gene expression. ApoE −/− mice were fed high fat diets created with or without 100 mg/kg diet racemic abscisic acid (ABA). (A) Infiltration of F4/80^+CD11b^+ macrophages and CD4^+ T-cells into the aorta were assessed with flow cytometry. Gene expression in the aorta of pro-inflammatory markers (B) vascular cell adhesion molecule 1 (VCAM-1), (C) monocyte chemoattractant protein 1 (MCP-1), (D) E-selectin, (F) peroxisome proliferator-activated receptor γ (PPAR γ), and (G) CD36 were measured as a ratio to the housekeeping gene β-actin. (H) MCP-1 protein concentrations (pg/mL) were measured by ELISA. Data were analyzed as a completely randomized design.
After euthanization, mouse hearts were perfused with PBS for 2 minutes. Aortas were then extracted. Aortic roots were cut into small […] pieces, and placed in 1× Hanks Balanced Sodium Salt Solution (HBSS) containing 0.2% type II collagenase (Worthington Biochemicals). After digestion at 37° C. for 1 hour, samples were sent through a […] nylon filter (BD), washed with HBSS, and centrifuged at 1200 rpm for 10 min. Cell suspensions were then resuspended in FACS buffer and enumerated by using a Z1 Single Particle Counter (Beckman Coulter). […]

[2] = tested on: monocyte chemoattractant protein 1 (MCP-1); test: Aortic gene expression by real-time RT-PCR: MCP-1; assay type: in vivo, mice; settings: P=0.10
Protocol: as §1
(§2) Total RNA was isolated from aortas using the RNA isolation Minikit (Qiagen) according to the manufacturer's instructions. […] Each gene amplicon was purified with the MiniElute PCR Purification Kit (Qiagen) and quantitated on an agarose gel by using a DNA mass ladder (Promega). […]
(§3) Complementary DNA (cDNA) concentrations for genes of interest were examined by real-time quantitative PCR using an iCycler IQ System and the iQ SYBR green supermix (Bio-Rad). […] Results are presented as a starting quantity of target cDNA (picograms) per microgram of total RNA. […]

E-selectin = test: Aortic gene expression by real-time RT-PCR: E-selectin; assay type: in vivo, mice; settings: P=0.20
Protocol: as §1, §2, §3

MCP-1 = MCP-1 concentrations in plasma by ELISA; assay type: in vivo, mice; settings: P=0.10
Protocol: as §1
A Ready-set-go MCP-1 ELISA (ebioscience) was used to quantify plasma MCP-1 according to the manufacturer's instructions.

[3] = tested on: human aorta endothelial cells (HAECs); test: Intracellular cAMP in human aorta endothelial cells; assay type: cell-based; settings: tested 0.01-10 μM
Protocol: FIG. 7 are graphs showing effect of ABA on (A) cAMP; (B) NO; and (C) eNOS. (A) Confluent human aortic endothelial cell (HAEC) were serum-starved using HBSS buffer for 30 min and then stimulated with various concentrations of ABA (0, 0.01, 0.1, 1, 10 μM) or Forskolin (1 μM) for […]. After removing supernatant, cells were lysated with 0.1 M HCL for 20 minutes to measure non-acetylated cAMP. (B) Confluent HAEC were serum-starved using HBSS buffer for 30 minutes and then stimulated with various concentrations of ABA (0, 0.001, 0.01, 0.1, 1, 10 μM) for 15 minutes to measure NO. Results (pmol/ml) from four independent experiments are depicted. […]
Confluent human aorta endothelial cells (HAECs) at passage 3 maintained with EGM-2 media (Clonetics, Walkerville, Md.) were adapted to Hank's buffered salt solution buffer for 30 min and then stimulated with ABA or forskolin (1 μM) for 10 min. For intracellular assessment of cAMP, the cells were harvested into 0.1 M HCL and the lysates were obtained by sonication and centrifugation. cAMP the lysates were determined by using an EIA kit (Assay Designs, Ann Arbor, Mich.) and results were obtained from four independent experiments. Nitric oxide levels in the cell culture supernatants were determined with the Nitric Oxide Assay Kit according to manufacturer's instructions (Assay Designs). […]

[4] = tested on: peroxisome proliferator-activated receptor γ (PPAR γ); test: Aortic gene expression by real-time RT-PCR: PPAR γ and responsive genes; assay type: in vivo, mice; settings: day 84
Protocol: as §1, §2, §3

## CC1=CC(=O)CC(C)(C)C1(O)/C=C/C(C)=C\C(=O)O (racemic) [ABA, abscisic acid]
[1]
  Recruitment of CD4+ T-cells in the aortic root vs control: significantly reduces recruitment
  Recruitment of F4/80+CD11b+ macrophages in the aortic root vs control: significantly reduces recruitment
[2]
  MCP-1 mRNA expression in the aortic roots vs control: reduced, though not to statistical significance
E-selectin
  E-selectin mRNA expression in the aortic roots vs control: reduced, though not to statistical significance
MCP-1
  Plasma MCP-1 concentrations vs control: decreased
[3]
  Dose inducing maximal effect on intracellular cAMP: 1 µM
  Lowest dose significantly increasing intracellular cAMP concentrations: 0.1 µM
[4]
  Expression of PPAR γ or its responsive genes in the aorta vs control: no differences

Reference: US20110054033A1, “METHODS OF USING ABSCISIC ACID FOR AMELIORATING HYPERTENSION AND VASCULAR INFLAMMATION” (Virginia Tech Intellectual Properties, Inc., priority 2009, published 2011)
